Reference: patent publication US20100317528A1, “HERBICIDE CONTAINING BENZOYLPYRAZOLE COMPOUND” (ISHIHARA SANGYO KAISHA, LTD., priority 2006, published 2010)

system: corn (Zea mays L.); assay: Test Example 1: foliar treatment, upland pot test, corn; type: in vivo; settings: 31 g/ha active ingredient, observed 17th to 25th day after application
From the text: (§1) Upland field soil was put into a 1/170,000 hectare pot, and seeds of various plants were sown. When the respective plants reached predetermined leaf stage ((1) barnyardgrass (Echinochloa crus-galli L.): 1.0 to 3.0 leaf stage, (2) crabgrass (Digitaria sanguinalis L.): 1.0 to 3.0 leaf stage, (3) green foxtail (Setaria viridis L.): 1.0 to 3.0 leaf stage, (4) redroot pigweed (Amaranthus retroflexus L.): cotyledon stage to 2.0 leaf stage, (5) prickly sida (Sida spinosa L.): cotyledon stage to 1.0 leaf stage, (6) velvetleaf (Abutilon theophrasti MEDIC.): 0.1 to 1.5 leaf stage, (7) rice (Oryza sativa L.): 1.0 to 3.0 leaf stage, (8) wheat (Triticum spp.): 1.7 to 3.4 leaf stage, (9) corn (Zea mays L.): 2.0 to 3.5 leaf stage, (10) soybean (Glycine max Merr.): primary leaf stage to 0.4 leaf stage), wettable powders or emulsifiable concentrates of the compounds of the above formula (I) prepared in accordance with a conventional preparation method, were weighed so that the active ingredients became the prescribed amounts, and diluted with water in an amount corresponding to 500 liter per 1 hectare (containing 0.1 vol % of “KUSARINOH”, manufactured by NIHON NOHYAKU CO., LTD. as an agricultural spreader). The spray solutions thus prepared were applied for foliar treatment by a small sprayer.
(§2) On the 17th to 25th day after application, the state of growth of the respective plants was visually observed, and the herbicidal effect was evaluated by a growth inhibition rate (%) of 0 (equivalent to the non-treated area) to 100% (complete kill).

SMILES | Growth inhibition rate (%) Corn
CCCOC(=O)c1c(S(C)(=O)=O)ccc(C(=O)c2cnn(CC)c2O)c1Cl [compound 154] | 0%
COCCOc1c(S(C)(=O)=O)ccc(C(=O)c2c(C)nn(C)c2O)c1C [compound 259] | 0%
CCc1nn(C)c(O)c1C(=O)c1ccc(S(C)(=O)=O)c(OCCOC)c1C [compound 261] | 0%

system: rice (Oryza sativa L.); assay: Test Example 1: foliar treatment, upland pot test, rice; type: in vivo; settings: 31 g/ha active ingredient, observed 17th to 25th day after application
From the text: as §1, §2

SMILES | Growth inhibition rate (%) Rice
CCCOC(=O)c1c(S(C)(=O)=O)ccc(C(=O)c2cnn(CC)c2O)c1Cl [compound 154] | 50%
COCCOc1c(S(C)(=O)=O)ccc(C(=O)c2c(C)nn(C)c2O)c1C [compound 259] | 70%
CCc1nn(C)c(O)c1C(=O)c1ccc(S(C)(=O)=O)c(OCCOC)c1C [compound 261] | 80%

system: soybean (Glycine max Merr.); assay: Test Example 1: foliar treatment, upland pot test, soybean; type: in vivo; settings: 31 g/ha active ingredient, observed 17th to 25th day after application
From the text: as §1, §2

SMILES | Growth inhibition rate (%) Soybean
CCCOC(=O)c1c(S(C)(=O)=O)ccc(C(=O)c2cnn(CC)c2O)c1Cl [compound 154] | 30%
COCCOc1c(S(C)(=O)=O)ccc(C(=O)c2c(C)nn(C)c2O)c1C [compound 259] | 95%
CCc1nn(C)c(O)c1C(=O)c1ccc(S(C)(=O)=O)c(OCCOC)c1C [compound 261] | 50%

system: wheat (Triticum spp.); assay: Test Example 1: foliar treatment, upland pot test, wheat; type: in vivo; settings: 31 g/ha active ingredient, observed 17th to 25th day after application
From the text: as §1, §2

SMILES | Growth inhibition rate (%) Wheat
CCCOC(=O)c1c(S(C)(=O)=O)ccc(C(=O)c2cnn(CC)c2O)c1Cl [compound 154] | 0%
COCCOc1c(S(C)(=O)=O)ccc(C(=O)c2c(C)nn(C)c2O)c1C [compound 259] | 0%
CCc1nn(C)c(O)c1C(=O)c1ccc(S(C)(=O)=O)c(OCCOC)c1C [compound 261] | 5%

system: soybean (Glycine max Merr.); assay: Test Example 2: soil application on the day after sowing, soybean; type: in vivo; settings: 250 g/ha active ingredient, observed 19th to 28th day after application
From the text: (§3) Upland field soil was put into a 1/170,000 hectare pot, and seeds of various plants barnyardgrass (Echinochloa crus-galli L.), crabgrass (Digitaria sanquinalis L.), green foxtail (Setaria viridis L.), redroot pigweed (Amaranthus retroflexus L.), prickly sida (Sida spinosa L.), velvetleaf (Abutilon theophrasti MEDIC.), rice (Oryza sativa L.), wheat (Triticum spp.), corn (Zea mays L.) and soybean (Glycine max Merr.)) were sown. On the day after sowing, wettable powders or emulsifiable concentrates of the compounds of the above formula (I) prepared in accordance with a conventional preparation method, were weighed so that the active ingredients became the prescribed amounts, and diluted with water in an amount corresponding to 500 liter per 1 hectare, followed by soil application with a small sprayer.
(§4) On the 19th to 28th day after the application, the state of growth of the respective plants was visually observed, and the herbicidal effect was evaluated by a growth inhibition rate (%) of from 0 (equivalent to the non-treated area) to 100% (complete kill).

SMILES | Growth inhibition rate (%) Soybean
CCCOC(=O)c1c(S(C)(=O)=O)ccc(C(=O)c2cnn(CC)c2O)c1Cl [compound 154] | 0%
COCCOc1c(S(C)(=O)=O)ccc(C(=O)c2c(C)nn(C)c2O)c1C [compound 259] | 20%
CCc1nn(C)c(O)c1C(=O)c1ccc(S(C)(=O)=O)c(OCCOC)c1C [compound 261] | 0%

system: redroot pigweed (Amaranthus retroflexus L.); assay: Test Example 1: foliar treatment, upland pot test, redroot pigweed; type: in vivo; settings: 31 g/ha active ingredient, observed 17th to 25th day after application
From the text: as §1, §2

SMILES | Growth inhibition rate (%) Redroot pigweed
CCCOC(=O)c1c(S(C)(=O)=O)ccc(C(=O)c2cnn(CC)c2O)c1Cl [compound 154] | 70%
COCCOc1c(S(C)(=O)=O)ccc(C(=O)c2c(C)nn(C)c2O)c1C [compound 259] | 95%
CCc1nn(C)c(O)c1C(=O)c1ccc(S(C)(=O)=O)c(OCCOC)c1C [compound 261] | 95%

system: prickly sida (Sida spinosa L.); assay: Test Example 1: foliar treatment, upland pot test, prickly sida; type: in vivo; settings: 31 g/ha active ingredient, observed 17th to 25th day after application
From the text: as §1, §2

SMILES | Growth inhibition rate (%) Prickly sida
CCCOC(=O)c1c(S(C)(=O)=O)ccc(C(=O)c2cnn(CC)c2O)c1Cl [compound 154] | 40%
COCCOc1c(S(C)(=O)=O)ccc(C(=O)c2c(C)nn(C)c2O)c1C [compound 259] | 60%
CCc1nn(C)c(O)c1C(=O)c1ccc(S(C)(=O)=O)c(OCCOC)c1C [compound 261] | 50%

system: green foxtail (Setaria viridis L.); assay: Test Example 1: foliar treatment, upland pot test, green foxtail; type: in vivo; settings: 31 g/ha active ingredient, observed 17th to 25th day after application
From the text: as §1, §2

SMILES | Growth inhibition rate (%) Green foxtail
CCCOC(=O)c1c(S(C)(=O)=O)ccc(C(=O)c2cnn(CC)c2O)c1Cl [compound 154] | 60%
COCCOc1c(S(C)(=O)=O)ccc(C(=O)c2c(C)nn(C)c2O)c1C [compound 259] | 100%
CCc1nn(C)c(O)c1C(=O)c1ccc(S(C)(=O)=O)c(OCCOC)c1C [compound 261] | 80%

system: crabgrass (Digitaria sanguinalis L.); assay: Test Example 1: foliar treatment, upland pot test, crabgrass; type: in vivo; settings: 31 g/ha active ingredient, observed 17th to 25th day after application
From the text: as §1, §2

SMILES | Growth inhibition rate (%) Crabgrass
CCCOC(=O)c1c(S(C)(=O)=O)ccc(C(=O)c2cnn(CC)c2O)c1Cl [compound 154] | 70%
COCCOc1c(S(C)(=O)=O)ccc(C(=O)c2c(C)nn(C)c2O)c1C [compound 259] | 95%
CCc1nn(C)c(O)c1C(=O)c1ccc(S(C)(=O)=O)c(OCCOC)c1C [compound 261] | 90%

system: redroot pigweed (Amaranthus retroflexus L.); assay: Test Example 2: soil application on the day after sowing, redroot pigweed; type: in vivo; settings: 250 g/ha active ingredient, observed 19th to 28th day after application
From the text: as §3, §4

SMILES | Growth inhibition rate (%) Redroot pigweed
CCCOC(=O)c1c(S(C)(=O)=O)ccc(C(=O)c2cnn(CC)c2O)c1Cl [compound 154] | 100%
COCCOc1c(S(C)(=O)=O)ccc(C(=O)c2c(C)nn(C)c2O)c1C [compound 259] | 90%
CCc1nn(C)c(O)c1C(=O)c1ccc(S(C)(=O)=O)c(OCCOC)c1C [compound 261] | 100%

system: prickly sida (Sida spinosa L.); assay: Test Example 2: soil application on the day after sowing, prickly sida; type: in vivo; settings: 250 g/ha active ingredient, observed 19th to 28th day after application
From the text: as §3, §4

SMILES | Growth inhibition rate (%) Prickly sida
CCCOC(=O)c1c(S(C)(=O)=O)ccc(C(=O)c2cnn(CC)c2O)c1Cl [compound 154] | 60%
COCCOc1c(S(C)(=O)=O)ccc(C(=O)c2c(C)nn(C)c2O)c1C [compound 259] | 0%
CCc1nn(C)c(O)c1C(=O)c1ccc(S(C)(=O)=O)c(OCCOC)c1C [compound 261] | 20%

system: barnyardgrass (Echinochloa crus-galli L.); assay: Test Example 1: foliar treatment, upland pot test, barnyardgrass; type: in vivo; settings: 31 g/ha active ingredient, observed 17th to 25th day after application
From the text: as §1, §2

SMILES | Growth inhibition rate (%) Barnyardgrass
CCCOC(=O)c1c(S(C)(=O)=O)ccc(C(=O)c2cnn(CC)c2O)c1Cl [compound 154] | 40%
COCCOc1c(S(C)(=O)=O)ccc(C(=O)c2c(C)nn(C)c2O)c1C [compound 259] | 95%
CCc1nn(C)c(O)c1C(=O)c1ccc(S(C)(=O)=O)c(OCCOC)c1C [compound 261] | 90%

system: rice (Oryza sativa L.); assay: Test Example 2: soil application on the day after sowing, rice; type: in vivo; settings: 250 g/ha active ingredient, observed 19th to 28th day after application
From the text: as §3, §4

SMILES | Growth inhibition rate (%) Rice
CCCOC(=O)c1c(S(C)(=O)=O)ccc(C(=O)c2cnn(CC)c2O)c1Cl [compound 154] | 50%
COCCOc1c(S(C)(=O)=O)ccc(C(=O)c2c(C)nn(C)c2O)c1C [compound 259] | 10%
CCc1nn(C)c(O)c1C(=O)c1ccc(S(C)(=O)=O)c(OCCOC)c1C [compound 261] | 20%

system: velvetleaf (Abutilon theophrasti MEDIC.); assay: Test Example 1: foliar treatment, upland pot test, velvetleaf; type: in vivo; settings: 31 g/ha active ingredient, observed 17th to 25th day after application
From the text: as §1, §2

SMILES | Growth inhibition rate (%) Velvetleaf
CCCOC(=O)c1c(S(C)(=O)=O)ccc(C(=O)c2cnn(CC)c2O)c1Cl [compound 154] | 60%
COCCOc1c(S(C)(=O)=O)ccc(C(=O)c2c(C)nn(C)c2O)c1C [compound 259] | 98%
CCc1nn(C)c(O)c1C(=O)c1ccc(S(C)(=O)=O)c(OCCOC)c1C [compound 261] | 95%

system: green foxtail (Setaria viridis L.); assay: Test Example 2: soil application on the day after sowing, green foxtail; type: in vivo; settings: 250 g/ha active ingredient, observed 19th to 28th day after application
From the text: as §3, §4

SMILES | Growth inhibition rate (%) Green foxtail
CCCOC(=O)c1c(S(C)(=O)=O)ccc(C(=O)c2cnn(CC)c2O)c1Cl [compound 154] | 30%
COCCOc1c(S(C)(=O)=O)ccc(C(=O)c2c(C)nn(C)c2O)c1C [compound 259] | 60%
CCc1nn(C)c(O)c1C(=O)c1ccc(S(C)(=O)=O)c(OCCOC)c1C [compound 261] | 60%

system: corn (Zea mays L.); assay: Test Example 2: soil application on the day after sowing, corn; type: in vivo; settings: 250 g/ha active ingredient, observed 19th to 28th day after application
From the text: as §3, §4

SMILES | Growth inhibition rate (%) Corn
CCCOC(=O)c1c(S(C)(=O)=O)ccc(C(=O)c2cnn(CC)c2O)c1Cl [compound 154] | 0%
COCCOc1c(S(C)(=O)=O)ccc(C(=O)c2c(C)nn(C)c2O)c1C [compound 259] | 0%
CCc1nn(C)c(O)c1C(=O)c1ccc(S(C)(=O)=O)c(OCCOC)c1C [compound 261] | 20%

system: crabgrass (Digitaria sanquinalis L.); assay: Test Example 2: soil application on the day after sowing, crabgrass; type: in vivo; settings: 250 g/ha active ingredient, observed 19th to 28th day after application
From the text: as §3, §4

SMILES | Growth inhibition rate (%) Crabgrass
CCCOC(=O)c1c(S(C)(=O)=O)ccc(C(=O)c2cnn(CC)c2O)c1Cl [compound 154] | 95%
COCCOc1c(S(C)(=O)=O)ccc(C(=O)c2c(C)nn(C)c2O)c1C [compound 259] | 100%
CCc1nn(C)c(O)c1C(=O)c1ccc(S(C)(=O)=O)c(OCCOC)c1C [compound 261] | 95%

system: barnyardgrass (Echinochloa crus-galli L.); assay: Test Example 2: soil application on the day after sowing, barnyardgrass; type: in vivo; settings: 250 g/ha active ingredient, observed 19th to 28th day after application
From the text: as §3, §4

SMILES | Growth inhibition rate (%) Barnyardgrass
CCCOC(=O)c1c(S(C)(=O)=O)ccc(C(=O)c2cnn(CC)c2O)c1Cl [compound 154] | 100%
COCCOc1c(S(C)(=O)=O)ccc(C(=O)c2c(C)nn(C)c2O)c1C [compound 259] | 10%
CCc1nn(C)c(O)c1C(=O)c1ccc(S(C)(=O)=O)c(OCCOC)c1C [compound 261] | 50%

system: wheat (Triticum spp.); assay: Test Example 2: soil application on the day after sowing, wheat; type: in vivo; settings: 250 g/ha active ingredient, observed 19th to 28th day after application
From the text: as §3, §4

SMILES | Growth inhibition rate (%) Wheat
CCCOC(=O)c1c(S(C)(=O)=O)ccc(C(=O)c2cnn(CC)c2O)c1Cl [compound 154] | 0%
COCCOc1c(S(C)(=O)=O)ccc(C(=O)c2c(C)nn(C)c2O)c1C [compound 259] | 0%
CCc1nn(C)c(O)c1C(=O)c1ccc(S(C)(=O)=O)c(OCCOC)c1C [compound 261] | 0%

system: velvetleaf (Abutilon theophrasti MEDIC.); assay: Test Example 2: soil application on the day after sowing, velvetleaf; type: in vivo; settings: 250 g/ha active ingredient, observed 19th to 28th day after application
From the text: as §3, §4

SMILES | Growth inhibition rate (%) Velvetleaf
CCCOC(=O)c1c(S(C)(=O)=O)ccc(C(=O)c2cnn(CC)c2O)c1Cl [compound 154] | 40%
COCCOc1c(S(C)(=O)=O)ccc(C(=O)c2c(C)nn(C)c2O)c1C [compound 259] | 70%
CCc1nn(C)c(O)c1C(=O)c1ccc(S(C)(=O)=O)c(OCCOC)c1C [compound 261] | 30%
